Patent publication US8309582B2, “Small molecule Bcl-Xl/Bcl-2 binding inhibitors” (The Ohio State University Research Foundation, priority 2004, dated 2012)
Where two headings read alike, the source gives them in different places.

What was measured:
[1] = biological target: T1, Bcl-xL (Homo sapiens, UniProt Q07817); assay: Competitive fluorescence polarization assay, displacement of Flu-BakBH3 peptide from Bcl-xL; type: binding
T1 construct: fused on or other part: His tag
Protocol: (§1) Competitive Fluorescence Polarization Assay. The binding affinity of the test agent to Bcl-2 and Bcl-xL was analyzed by a competitive fluorescence polarization assay, in which the ability of the agent to displace the binding of a Bak BH3-domain peptide to either Bcl-2 or Bcl-xL was determined. Flu-BakBH3, a Bak-BH3 peptide labeled at the N-terminus with fluorescein, was purchased from Genemed Synthesis (San Francisco, Calif.). C-Terminal-truncated, His-tagged Bcl-xL was purchased from EMD Biosciences (San Diego, Calif.), and soluble GST-fused Bcl-2 was obtained from Santa Cruz (Santa Cruz, Calif.). The KD determination was carried out in a dual-pathlength quartz cell with readings taken at […] at room temperature using a luminescence spectrometer according to an established procedure (17). Determination of IC50 values. Data from cell viability and FP assays were analyzed by using the CalcuSyn software (Biosoft, Ferguson, Mo.) to determine IC50 values, in which the calculation was based on the medium effect equation (18), i.e., Log(fa/fu)=m log(D)−m log(Dm) (equation 1), where fa and fu denote fraction affected and unaffected, respectively; m represents the Hill-type coefficient signifying the sigmoidicity of the dose-effect curve; D and Dm are the dose used and IC50, respectively.

[2] = biological target: Bcl-2 (Homo sapiens, UniProt P10415); assay: Competitive fluorescence polarization assay, displacement of Flu-BakBH3 peptide from Bcl-2; type: binding
Bcl-2, sequence (P10415 whole entry): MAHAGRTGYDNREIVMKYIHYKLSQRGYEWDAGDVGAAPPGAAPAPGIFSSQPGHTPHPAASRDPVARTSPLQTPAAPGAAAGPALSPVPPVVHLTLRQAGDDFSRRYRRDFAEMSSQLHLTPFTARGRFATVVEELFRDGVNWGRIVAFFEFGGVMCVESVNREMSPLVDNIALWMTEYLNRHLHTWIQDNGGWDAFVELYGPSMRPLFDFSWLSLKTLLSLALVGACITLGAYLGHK
Protocol: as §1

[3] = tested on: PC-3 cells; assay: Cell viability analysis (MTT) in PC-3 cells; type: cell-based; details: Homo sapiens, PC-3, PC-3 cells, read-out: IC50 (μM) PC3
Protocol: Cell viability analysis. The effect of individual test agents on cell viability was assessed by using the MTT {[3-(4,5-dimethylthiazol-2-yl)-2,5-diphenyl-2H-tetrazolium bromide]} assay in six to twelve replicates. […] Controls received DMSO vehicle at a concentration equal to that in drug-treated cells. […] Supernatants were removed from the wells, and the reduced MTT dye was solubilized in 200 μl/well DMSO. Absorbance at 570 nm was determined on a plate reader.
(§2) Determination of IC50 values. Data from cell viability and FP assays were analyzed by using the CalcuSyn software (Biosoft, Ferguson, Mo.) to determine IC50 values, in which the calculation was based on the medium effect equation (18), i.e., Log(fa/fu)=m log(D)−m log(Dm) (equation 1), where fa and fu denote fraction affected and unaffected, respectively; m represents the Hill-type coefficient signifying the sigmoidicity of the dose-effect curve; D and Dm are the dose used and IC50, respectively.

[4] = MTT assay (IC50 for MTT, Tables 1-9); type: cell-based; details: cell line and unit inferred
Protocol: Cell viability analysis. The effect of individual test agents on cell viability was assessed by using the MTT {[3-(4,5-dimethylthiazol-2-yl)-2,5-diphenyl-2H-tetrazolium bromide]} assay in six to twelve replicates. Cells were seeded and incubated in 96-well, flat-bottomed plates in serum-free media for 24 h, and were exposed to various concentrations of test agents dissolved in DMSO (final concentration, 0.1%) in serum-free RPMI 1640 medium for different time intervals. Controls received DMSO vehicle at a concentration equal to that in drug-treated cells. The medium was removed, replaced by 200 μl of 0.5 mg/ml of MTT in 10% FBS-containing RPMI-1640 medium, and cells were incubated in the CO2 incubator at 37° C. for 2 h. Supernatants were removed from the wells, and the reduced MTT dye was solubilized in 200 μl/well DMSO. Absorbance at 570 nm was determined on a plate reader.
as §2

[5] = WB (IC50 for WB, Tables 1-9); type: cell-based; details: marker, cell line and unit inferred
Protocol: Immunoblotting. Cells in T-75 flasks were collected by scraping, and suspended in 60 μl of phosphate-buffered saline (PBS). Two μl of the suspension was taken for protein analysis using the Bradford assay kit (Bio-Rad, Hercules, Calif.). To the remaining solution was added the same volume of 2×SDS-PAGE sample loading buffer (100 mM Tris-HCl, pH 6.8, 4% SDS, 5% β-mercaptoethanol 20% glycerol, and 0.1% bromophenol blue). The mixture was sonicated briefly, and boiled for 5 min. Equal amounts of proteins were loaded onto 10% SDS-PAGE gels.
After electrophoresis, protein bands were transferred to nitrocellulose membranes in a semidry transfer cell. The transblotted membrane was washed twice with Tris-buffered saline (TBS) containing 0.1% Tween 20 (TBST). After blocking with TBST containing 5% nonfat milk for 40 min, the membrane was incubated with the appropriate primary antibody in TBST-1% nonfat milk at 4° C. overnight. All primary antibodies were diluted 1:1000 in 1% nonfat milk-containing TBST. After treatment with the primary antibody, the membrane was washed three times with TBST for a total of 15 min, followed by incubation with goat anti-rabbit or anti-mouse IgG-horseradish peroxidase conjugates (diluted 1:5000) for 1 h at room temperature and three washes with TBST for a total of 1 h. The immunoblots were visualized by enhanced chemiluminescence.

[6] = unit inferred, read-out: IC50 for inhibiting BH3-mediated protein interactions (Bcl-xL)
[7] = unit inferred, read-out: IC50 for inhibiting BH3-mediated protein interactions (Bcl-2)
[8] = inhibition of Bak BH3 peptide binding to Bcl-xL, FP, read-out: IC50 Bcl-xl/Bak
[9] = inhibition of Bak BH3 peptide binding to Bcl-2, FP, read-out: IC50 Bcl-2/Bak

T1 sequence (Q07817 1-209 limits assumed): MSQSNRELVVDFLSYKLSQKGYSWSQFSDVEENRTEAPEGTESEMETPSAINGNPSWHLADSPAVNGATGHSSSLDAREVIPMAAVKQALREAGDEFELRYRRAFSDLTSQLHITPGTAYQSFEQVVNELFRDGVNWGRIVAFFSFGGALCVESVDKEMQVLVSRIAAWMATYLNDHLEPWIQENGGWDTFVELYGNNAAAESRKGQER

Compound	IC50 [1, 6] [µM]	IC50 [2, 7] [µM]	IC50 [1, 8] [µM]	IC50 [2, 9] [µM]	IC50 [3] [µM]	IC50 [4] [µM]	IC50 [5] [µM]
CCc1ccc(CCOc2ccc(CC3SC(=O)NC3=O)cc2)nc1 (stereo not shown) [PG, pioglitazone, reference compound]	> 50	> 50	–	–	–	–	–
CN(CCOc1ccc(CC2SC(=O)NC2=O)cc1)c1ccccn1 (stereo not shown) [RG, rosiglitazone, reference compound]	> 50	> 50	–	–	–	–	–
C=CCOc1c(C)c(C)c2c(c1C)CCC(C)(COc1ccc(/C=C3\SC(=S)NC3=O)cc1)O2 (stereo not shown) [TG-3]	–	–	4.8 ± 0.5	7.3 ± 0.3	10 ± 1.2	–	–
C=CCOc1c(C)c(C)c2c(c1C)CCC(C)(COc1ccc(/C=C3\SC(=O)NC3=O)cc1)O2 (stereo not shown) [TG-6]	–	–	6 ± 0.5	5.5 ± 0.4	11 ± 0.8	9	3
C=CCOc1c(C)c(C)c2c(c1C)CCC(C)(COc1ccc(/C=C3\SC(=O)N(CC(=O)OC)C3=O)cc1)O2 (stereo not shown) [TG-9]	–	–	> 50	> 50	> 50	> 50	> 7.5
Cc1c(C)c2c(c(C)c1OC/C=C/c1ccccc1)CCC(C)(COc1ccc(/C=C3\SC(=O)NC3=O)cc1Br)O2 (stereo not shown) [TG-11]	–	–	2.2 ± 0.2	3.1 ± 0.4	6 ± 0.3	–	> 7.5
Cc1c(C)c2c(c(C)c1OCc1ccccc1)CCC(C)(COc1ccc(/C=C3\SC(=O)NC3=O)cc1)O2 (stereo not shown) [TG-12]	–	–	14 ± 1.1	18 ± 0.9	18 ± 1.3	–	3.6
CC(C)=CCOc1c(C)c(C)c2c(c1C)CCC(C)(COc1ccc(/C=C3\SC(=O)NC3=O)cc1)O2 (stereo not shown) [TG-14]	–	–	4.5 ± 0.4	4.8 ± 0.4	9 ± 1	–	7
O=C1NC(=O)/C(=C/c2ccc(OCC3CCc4ccccc4C3)cc2)S1 (stereo not shown) [TG-15]	–	–	16 ± 0.5	18 ± 0.9	12 ± 0.9	–	3.8
COc1cc(/C=C2\SC(=O)NC2=O)ccc1OCC1(C)CCc2c(C)c(OCC=C(C)C)c(C)c(C)c2O1 (stereo not shown) [TG-16]	–	–	6.5 ± 0.5	4.8 ± 0.5	4.7 ± 0.2	–	5.6
CC(C)=CCOc1c(C)c(C)c2c(c1C)CCC(C)(COc1ccc(/C=C3\SC(=O)NC3=O)cc1C)O2 (stereo not shown) [TG-17]	–	–	2.6 ± 0.3	3.1 ± 0.4	4.8 ± 0.3	–	3.2
C=CCOc1c(C)c(C)c2c(c1C)CCC(C)(COc1ccc(/C=C3\SC(=O)NC3=O)cc1Br)O2 (stereo not shown) [TG-27]	–	–	2.1 ± 0.2	2.7 ± 0.4	5 ± 0.5	–	> 7.5
C=CCOc1c(C)c(C)c2c(c1C)CCC(C)(COc1ccc(/C=C3\SC(=O)NC3=O)cc1OC)O2 (stereo not shown) [TG-28]	–	–	4 ± 0.3	4.4 ± 0.3	5.2 ± 0.5	–	2.3
C=CCOc1c(C)c(C)c2c(c1C)CCC(C)(COc1ccc(/C=C3\SC(=O)NC3=O)cc1C)O2 (stereo not shown) [TG-29]	–	–	3 ± 0.3	3.5 ± 0.6	5.1 ± 0.4	–	3.6
CC(C)=CCOc1c(C)c(C)c2c(c1C)CCC(C)(COc1ccc(/C=C3\SC(=O)NC3=O)cc1F)O2 (stereo not shown) [TG-30]	–	–	2.7 ± 0.3	3.4 ± 0.5	6 ± 0.4	–	7.2
CC(C)=CCOc1c(C)c(C)c2c(c1C)CCC(C)(COc1ccc(/C=C3\SC(=O)NC3=O)cc1-c1ccc(F)cc1)O2 (stereo not shown) [TG-32]	–	–	6.5 ± 0.5	6.6 ± 0.6	5 ± 0.4	–	> 7.5
CC(C)=CCOc1c(C)c(C)c2c(c1C)CCC(C)(COc1c(Br)cc(/C=C3\SC(=O)NC3=O)cc1Br)O2 (stereo not shown) [TG-34]	–	–	2 ± 0.2	2.8 ± 0.4	4.4 ± 0.4	–	2.7
CC(C)=CCOc1c(C)c(C)c2c(c1C)CCC(C)(COc1ccc(/C=C3\SC(=O)NC3=O)cc1[N+](=O)[O-])O2 (stereo not shown) [TG-35]	–	–	–	–	> 50	–	2.7

Compound	IC50 [1, 6] [µM]	IC50 [2, 7] [µM]	IC50 [1, 8] [µM]	IC50 [2, 9] [µM]	IC50 [3] [µM]	IC50 [4] [µM]	IC50 [5] [µM]
CC(C)=CCOc1c(C)c(C)c2c(c1C)CCC(C)(COc1ccc(C=C(C#N)C#N)cc1Br)O2 (stereo not shown) [TG-36]	–	–	–	–	> 50	> 50	> 7.5
CC(C)=CCOc1c(C)c(C)c2c(c1C)CCC(C)(COc1ccc(/C=C/C(=O)O)cc1Br)O2 (stereo not shown) [TG-37]	–	–	–	–	6 ± 0.7	–	> 7.5
CCOC(=O)C(C)(C)C(O)c1ccc(OCC2(C)CCc3c(C)c(OCC=C(C)C)c(C)c(C)c3O2)c(Br)c1 (stereo not shown) [TG-38]	–	–	–	–	12.5 ± 0.6	> 50	4.5
CC(C)=CCOc1c(C)c(C)c2c(c1C)CCC(C)(COc1ccc(C(O)C(C)(C)C(=O)O)cc1Br)O2 (stereo not shown) [TG-39]	–	–	–	–	7 ± 0.4	–	> 7.5
CCOC(=O)C(=Cc1ccc(OCC2(C)CCc3c(C)c(OCC=C(C)C)c(C)c(C)c3O2)c(Br)c1)C(=O)OCC (stereo not shown) [TG-41]	–	–	–	–	> 50	> 50	> 7.5
CC(C)=CCOc1c(C)c(C)c2c(c1C)CCC(C)(COc1ccc(C=C(C(=O)O)C(=O)O)cc1Br)O2 (stereo not shown) [TG-42]	–	–	–	–	16 ± 0.3	> 50	> 7.5
CC(C)=CCOc1c(C)c(C)c2c(c1C)CCC(C)(COc1ccc(/C=C3\SC(=O)NC3=O)c3ccccc13)O2 (stereo not shown) [TG-43]	–	–	–	–	3 ± 0.2	–	7.2
COc1cc(/C=C2\SC(=O)NC2=O)cc(Br)c1OCC1(C)CCc2c(C)c(OCC=C(C)C)c(C)c(C)c2O1 (stereo not shown) [TG-44]	–	–	–	–	5.1 ± 0.4	–	> 7.5
CCOc1cc(/C=C2\SC(=O)NC2=O)ccc1OCC1(C)CCc2c(C)c(OCC=C(C)C)c(C)c(C)c2O1 (stereo not shown) [TG-45]	–	–	–	–	4.6 ± 0.3	–	6.7
CC(C)=CCOc1c(C)c(C)c2c(c1C)CCC(C)(COc1ccc(/C=C3\SC(=S)NC3=O)c3ccccc13)O2 (stereo not shown) [TG-46]	–	–	–	–	5.3 ± 0.3	–	6.7
C=CCOc1c(C)c(C)c2c(c1C)CCC(C)(COc1cccc(/C=C3\SC(=O)NC3=O)c1)O2 (stereo not shown) [TG-51]	–	–	–	–	6.8 ± 0.2	40	4.4
C=CCOc1c(C)c(C)c2c(c1C)CCC(C)(COc1c(C)cc(/C=C3\SC(=O)NC3=O)cc1C)O2 (stereo not shown) [TG-52]	–	–	–	–	4.5 ± 0.2	–	7.5
C=CCOc1c(C)c(C)c2c(c1C)CCC(C)(COc1ccc(/C=C3\SC(=O)NC3=O)c3ccccc13)O2 (stereo not shown) [TG-53]	–	–	–	–	3.3 ± 0.3	–	3.4
C=CCOc1c(C)c(C)c2c(c1C)CCC(C)(COc1c(Br)cc(/C=C3\SC(=O)NC3=O)cc1OC)O2 (stereo not shown) [TG-54]	–	–	–	–	–	–	3.8
C=CCOc1c(C)c(C)c2c(c1C)CCC(C)(COc1ccc(/C=C3\SC(=O)NC3=O)cc1OCC)O2 (stereo not shown) [TG-55]	–	–	–	–	–	–	> 7.5
CC(C)=CCOc1c(C)c(C)c2c(c1C)CCC(C)(COc1ccc(/C=C3\SC(=S)NC3=O)cc1Br)O2 (stereo not shown) [TG-89]	–	–	–	–	4.4 ± 0.4	–	–
CN(CCOc1ccc(C=C2SC(O)=NC2=O)cc1)c1ccccn1 [Δ2-RG, 5-{4-[2-(methyl-pyridin-2-yl-amino)-ethoxy]-benzylidene}-thiazolidine-2,4-dione]	> 50	> 50	–	–	–	–	–
